Read-outs that look alike come from different tables or passages of the source. Marks after values point to notes of the source that are not given here.
What was measured:
[1] = set-up: method as in Teeguarden et al.; details: ref Teeguarden et al., cited from earlier work
[2] = blood; previous model, BPA; ref Karrer et al.; cited from earlier work
[3] = Present human PBK model, model evaluation (scenarios 3 and 4); details: for predicted AUC, times higher than observed: present model vs Teeguarden et al. (BPA dosing); for predicted blood C max as percent of the observed value: present model vs Teeguarden et al.; for predicted blood C max as percent of the observed value / predicted blood C max, times higher than in vivo observed: average
Excerpt: Several exposure scenarios were defined for parameter gathering, model evaluation, and internal exposure assessment (Table ). In scenarios 1 and 2, a rat PBK model was used to parametrize enterohepatic circulation (EHC) rates for application in human PBK models. […] Models were developed for four human physiologies: male (“man”) and female adults (“woman”), male “child”, and male “toddler” (Table S2). These models were selected based on available physiological data for key organs (thyroid, breasts, and testes), related to ED and the detected bisphenol exposure level. The repeated dose scheme from Karrer et al. was reproduced (scenarios 9 to 12) to model chronic exposure via three meals a day.
When not individually compartmentalized, organs were categorized as either slowly perfused tissues or rapidly perfused tissues and combined. Compartments related to the thyroid, testes, and breasts (depending on sex) were included in human but not rat models. Code was compiled in Berkeley Madonna 10 and Python (see Supporting Information and GitLab: https://gitlab.ethz.ch/eth_toxlab/pbk_model_bisphenol_analogs).
These PBK models were parametrized using a multimodal framework that integrates new approach methodology tools into a reproducible chemical-family wide workflow. This framework combines QSARs, in vitro experiments, and cross-species extrapolation to parametrize PBK models for a family of compounds, some of which were considered data-poor (Figure ). […] Organism-based parameters were tailored to account for species, sex, and age when possible (Figure and Table S2). − Parameters based on both the organism and chemical were partition coefficients, intestinal uptake, EHC rate, and glucuronidation kinetics (Figure ).
To address parameter uncertainty in concentrations that were predicted with human PBK models, 10,000 Monte Carlo (MC) simulations were performed. Each sensitive parameter was resampled according to probability distributions from the literature (Table S8). ,− To ensure physiological plausibility, EHC rates were constrained between 0 and 1, and the sum of all relative organ weights and the sum of all relative organ blood flows were kept constant. MC simulation outcomes were analyzed by comparing the first quartile, the median, and the third quartile values of concentrations per time point.

[4] = system: human small intestinal S9; assay: Glucuronidation in human small intestinal S9; type: in vitro ADME
Protocol: Supplementary information on glucuronidation kinetics measurement […]
µg/mL alamethicin, and 10 mM magnesium chloride. Negative controls using 0.1 M Tris-HCl […]
without UDPGA were included.
37° C with 350 rpm shaking. […]
at -20 °C for 1 h to precipitate proteins. The resulting mixture was centrifuged (10 min, 4 °C, 15,000 rcf). Supernatants were analyzed using High-performance liquid chromatography (HPLC) with diode array detector (DAD). Similar experiments were conducted for BPA, BPB, BPE, and […]
Bisphenol concentrations ranged
The retention times for the various bisphenols […]
(§1) and their glucuronides are provided in Supplementary Table S7. Calibration curves were set from concentrations ranging from 1 to 100 µM.

[5] = ref Yang et al.; cited from earlier work
Human Liver S9 = assay: Glucuronidation kinetics in human liver S9; details: human liver S9 fractions; for Vmax hepatic glucuronidation / Km: GraphPad Prism fitting; for Ksi hepatic glucuronidation: substrate inhibition fit; for Km: read-out: Km hepatic glucuronidation
Protocol: (§2) The glucuronidation kinetics of BPA, BPB, BPE, BPF, BPAF, and BPM were determined as described in the Supporting Information (Tables S6 and S7). Outliers were excluded using the Nalimov test.
(§3) Supplementary information on glucuronidation kinetics measurement
(§4) BPA, BPB, BPE and BPM were incubated with Corning® UltraPool™ Human Liver S9 in a buffer […]
(§5) containing UDPGA. […]
(§6) S9 protein). For each assay, an S9 aliquot was thawed on ice, and a reaction master mix was prepared with 0.1 mg S9 protein/mL in either 0.1 M (for BPA, BPB, BPAF, and BPF) or […] (for BPE and BPM) Tris-HCl, along with 10 mM UDPGA in 50 mM Tris-HCl (pH 7.4), 25 µg/mL alamethicin, and 10 mM magnesium chloride. Negative controls using 0.1 M Tris-HCl without UDPGA were included. Each reaction solution (100 µL) was pre-incubated for 5 min at 37° C with 350 rpm shaking. To this solution was added bisphenol solutions (0 to 20 mM) in DMSO in a ratio of 1:100 to achieve final bisphenol concentrations of 0 to 200 µM and 1% (v/v) […]
(§7) glucuronidation reaction was stopped by adding cold methanol (160 μL) and samples were kept at -20 °C for 1 h to precipitate proteins. The resulting mixture was centrifuged (10 min, 4 °C, 15,000 rcf). Supernatants were analyzed using High-performance liquid chromatography (HPLC) with diode array detector (DAD). […]
(§8) A gradient elution […]
(§9) was used with water containing 0.1% formic acid as eluent A and acetonitrile with 0.1% formic acid as eluent B. The initial condition of 15% eluent B was increased to 65% eluent B over 20 min, and then to 90% eluent B in the next 5 min. […]
as §1

[6] = Glucuronidation kinetics in human liver S9; details: human
Protocol: as §2, §3, §4, §5, §6, §7, §8, §9, §1

[7] = set-up: method as in Thayer et al.; details: ref Thayer et al., cited from earlier work
[8] = Glucuronidation kinetics in rat liver S9; details: male, Sprague-Dawley, rat, rat liver S9, pH 7.4
Protocol: as §2, §3
as §6, with “BPA, BPB, BPE and BPM were incubated with Corning® UltraPool™ Human Liver S9 in a buffer containing UDPGA. The S9 reagent (20 mg protein/mL) was aliquoted and stored at -80° C until use. BPAF and BPF were incubated similarly with rat liver S9 (Sprague-Dawley, male, 0.1 mg/mL S9 protein).” for “S9 protein).”
as §7, with “(DAD). Similar experiments were conducted for BPA, BPB, BPE, and BPM with human small intestinal S9 mix (0.025 to 0.25 mg/mL). Bisphenol concentrations ranged from 5 to 120 µM, and incubation times from 15 to 120 min.” for “(DAD).”
(§10) series HPLC system with a Waters XBridge BEH130 C18 column (4.6 × 150 mm, 3.5 μm particle size) for separation and a DAD set to a detection wavelength of λ = 280 nm. A gradient elution was used with water containing 0.1% formic acid as eluent A and acetonitrile with 0.1% formic acid as eluent B. The initial condition of 15% eluent B was increased to 65% eluent B over 20 min, and then to 90% eluent B in the next 5 min. […]
as §1

[9] = system: rat liver S9 (Sprague-Dawley, male); assay: Glucuronidation kinetics in rat liver S9
Protocol: as §2, §3
as §6, with “BPA, BPB, BPE and BPM were incubated with Corning® UltraPool™ Human Liver S9 in a buffer containing UDPGA. The S9 reagent (20 mg protein/mL) was aliquoted and stored at -80° C until use. BPAF and BPF were incubated similarly with rat liver S9 (Sprague-Dawley, male, 0.1 mg/mL S9 protein).” for “S9 protein).”
as §7, with “(DAD). Similar experiments were conducted for BPA, BPB, BPE, and BPM with human small intestinal S9 mix (0.025 to 0.25 mg/mL). Bisphenol concentrations ranged from 5 to 120 µM, and incubation times from 15 to 120 min.” for “(DAD).”
as §10, §1

[10] = set-up: method as in Oh et al.; details: blood, in vivo, 4 men and 3 women, ref Oh et al., cited from earlier work; for Cmax: 8.75 μg/kg bw d4-BPS in a chocolate cookie; for AUC / t max: 8.75 μg/kg bw d4-BPS
[11] = set-up: method as in Oh et al.; details: blood; previous model, BPS; ref Oh et al.; cited from earlier work
[12] = blood, in vivo, 10 men, 30 μg/kg bw d6-BPA in soup
[13] = rat liver S9 fractions, GraphPad Prism fitting
[14] = present model vs Oh et al. (BPS dosing)

CC(C)(c1ccc(O)cc1)c1ccc(O[C@@H]2O[C@H](C(=O)O)[C@@H](O)[C@H](O)[C@H]2O)cc1 [BPA glucuronide]
Cmax ([1]; blood, in vivo, 10 men, 30 μg/kg bw d6-BPA in 355 mL of soup, (range)): 286 nM
AUC [1, 12]: 680 (571–1′210) ^a nM x day
t max [1, 12]: 1.2 (0.8–2.2) ^a h
Cmax [2]: 610 nM
t max [2]: 0.94 (0.93–0.97) ^c h
predicted AUC, times higher than observed [3]: about 1.5 times
predicted blood C max as percent of the observed value [3]: 80%

CC(C)(c1ccc(O)cc1)c1ccc(O)cc1 [BPA, bisphenol A]
urinary excretion ([1]; at 24 h, range 90–116%): 104%
AUC [1, 12]: 2.5 (1.4–5.7) ^a nM x day
urinary fraction of unconjugated BPA [1]: 0.03%
glucuronidation rates in small intestinal S9 fractions [4]: negligible
AUC [2]: 4.15 (2.91–5.15) ^c nM x day
Cmax [2]: 1.31 nM
t max [2]: 0.72 (0.67–0.77) ^c h
predicted AUC, times higher than observed [3]: about 1.5 times
predicted blood C max as percent of the observed value [3]: 63%
glucuronidated BPA undergoing EHC [5]: ten
Vmax hepatic glucuronidation (Human Liver S9): 4.06 nmol/min/mg
Km ([6]; pH 7.4): 13.1 µM
urinary excretion ([7]; at 24 h, range 92–100%): 98%
cumulative urinary excretion ([7]; by 48 h): 80–110%
urinary fraction of unconjugated BPA [7]: 0.029%
total BPA excreted ([7]; within 12 h post exposure, range 86–98%): 94%

Oc1ccc(C(c2ccc(O)cc2)(C(F)(F)F)C(F)(F)F)cc1 [BPAF, Bisphenol AF]
Km [8]: 49.7 µM
Vmax hepatic glucuronidation [9, 13]: 7.10 nmol/min/mg
Ksi hepatic glucuronidation ([9]; rat liver S9 fractions, substrate inhibition fit): 27.63 µM

CCC(C)(c1ccc(O)cc1)c1ccc(O)cc1 [BPB, Bisphenol B]
glucuronidation rates in small intestinal S9 fractions [4]: negligible
Vmax hepatic glucuronidation (Human Liver S9): 5.81 nmol/min/mg
Ksi hepatic glucuronidation (Human Liver S9): 21.48 µM
Km ([6]; human liver S9, pH 7.4): 12.3 µM

CC(c1ccc(O)cc1)c1ccc(O)cc1 [BPE, Bisphenol E]
glucuronidation rates in small intestinal S9 fractions [4]: negligible
Vmax hepatic glucuronidation (Human Liver S9): 3.42 nmol/min/mg
Ksi hepatic glucuronidation (Human Liver S9): 280.6 µM
Km (Human Liver S9): 51.3 µM

Oc1ccc(Cc2ccc(O)cc2)cc1 [BPF, Bisphenol F]
Vmax hepatic glucuronidation [9, 13]: 1.17 nmol/min/mg
Vmax hepatic glucuronidation ([9]; rat model code): 1.173 nmol/min/mg
Km ([9]; read-out: Km hepatic glucuronidation, rat liver S9 fractions, GraphPad Prism fitting): 47.5 µM

CC(C)(c1ccc(O)cc1)c1cccc(C(C)(C)c2ccc(O)cc2)c1 [BPM, Bisphenol M]
glucuronidation rates in small intestinal S9 fractions [4]: negligible
Vmax hepatic glucuronidation (Human Liver S9): 4.89 nmol/min/mg
Ksi hepatic glucuronidation (Human Liver S9): 51.75 µM
Km (Human Liver S9): 20.2 µM

O=C(O)[C@H]1O[C@@H](Oc2ccc(S(=O)(=O)c3ccc(O)cc3)cc2)[C@H](O)[C@@H](O)[C@@H]1O [BPS glucuronide]
mean predicted AUC, times higher than in vivo [3, 14]: about 2.4 times
predicted blood C max, times higher than in vivo observed [3, 14]: 2.8 times
Cmax [10]: 10.5 nM
AUC [10]: 78.7 (54–103) ^d nM x day
t max [10]: 1.0 (1.0–1.0) ^d h

O=S(=O)(c1ccc(O)cc1)c1ccc(O)cc1 [BPS, Bisphenol S]
delay of average predicted t max vs measure [3, 14]: 1.7 h
predicted blood C max, times higher than in vivo observed [3, 14]: 1.6 times
AUC [11]: 39.8 − ^, ^e nM x day
Cmax [11]: 10.1 nM
t max [11]: 0.57 (0.26–0.88) ^e h
Cmax [10]: 8.79 nM
AUC [10]: 40 − , ^d nM x day
t max [10]: 0.5 (0.25–0.5) ^d h
